In one assay the target is T1, Recombinant JAK1 (Homo sapiens, UniProt P23458).
T1 construct: purchased Carna Biosciences
Put plainly: JAK biochemical assay (LANCE Ultra TR-FRET), JAK1. The settings on record: recombinant JAK1, TR-FRET; read-out: Biochemical Assay (μM) JAK1. In a few lines: (§1)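 % inhibition relative to vehicle was derived from TR-FRET signal proportional to ULight-substrate phosphorylation. Reactions used recombinant kinase in HEPES pH 7.5 buffer containing EGTA, MgCl2, DTT and Tween-20.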
Background: Time-resolved FRET reads energy transfer from a long-lived donor to a nearby acceptor.

For a further assay, the target named is T2, Recombinant JAK2 (Homo sapiens, UniProt O60674).
T2 construct: purchased Carna Biosciences
Kind of assay: JAK biochemical assay (LANCE Ultra TR-FRET), JAK2. The settings on record: recombinant JAK2, TR-FRET; read-out: Biochemical Assay (μM) JAK2. In a few lines:
as §1

A further assay deals with T3, Recombinant JAK3 (Homo sapiens, UniProt P52333).
T3 construct: purchased Carna Biosciences
T3 sequence (P52333 1-1124): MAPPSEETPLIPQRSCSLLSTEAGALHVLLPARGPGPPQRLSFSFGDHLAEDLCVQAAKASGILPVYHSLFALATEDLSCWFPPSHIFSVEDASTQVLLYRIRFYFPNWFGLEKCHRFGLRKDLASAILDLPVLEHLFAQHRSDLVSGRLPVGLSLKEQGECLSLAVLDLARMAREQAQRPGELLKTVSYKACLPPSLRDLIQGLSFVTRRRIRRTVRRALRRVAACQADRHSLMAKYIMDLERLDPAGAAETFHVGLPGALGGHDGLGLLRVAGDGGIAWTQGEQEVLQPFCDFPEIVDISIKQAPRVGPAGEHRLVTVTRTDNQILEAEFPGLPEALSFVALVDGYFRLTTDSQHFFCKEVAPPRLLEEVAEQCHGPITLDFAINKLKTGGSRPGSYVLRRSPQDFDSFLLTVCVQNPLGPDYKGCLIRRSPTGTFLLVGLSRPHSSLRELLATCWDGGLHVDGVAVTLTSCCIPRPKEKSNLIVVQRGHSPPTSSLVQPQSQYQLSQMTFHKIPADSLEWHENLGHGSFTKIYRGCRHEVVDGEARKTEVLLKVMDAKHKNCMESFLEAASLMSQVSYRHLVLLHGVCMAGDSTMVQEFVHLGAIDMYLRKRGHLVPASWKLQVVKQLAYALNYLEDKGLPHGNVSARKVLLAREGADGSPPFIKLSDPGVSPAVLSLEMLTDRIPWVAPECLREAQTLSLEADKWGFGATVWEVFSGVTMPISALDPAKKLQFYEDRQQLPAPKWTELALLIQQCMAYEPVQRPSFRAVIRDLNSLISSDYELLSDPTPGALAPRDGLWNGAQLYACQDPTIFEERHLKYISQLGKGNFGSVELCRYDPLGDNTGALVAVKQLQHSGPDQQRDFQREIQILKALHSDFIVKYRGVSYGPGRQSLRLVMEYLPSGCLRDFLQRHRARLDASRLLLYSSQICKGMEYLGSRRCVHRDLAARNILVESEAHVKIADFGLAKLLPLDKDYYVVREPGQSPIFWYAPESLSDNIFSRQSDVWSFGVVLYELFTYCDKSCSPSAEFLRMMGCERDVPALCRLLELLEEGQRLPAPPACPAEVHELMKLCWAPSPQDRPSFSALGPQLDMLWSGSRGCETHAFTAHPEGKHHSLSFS
Put plainly: JAK biochemical assay (LANCE Ultra TR-FRET), JAK3. The note with it: recombinant JAK3, TR-FRET; read-out: Biochemical Assay (μM) JAK3. In a few lines: as §1

A further assay deals with T4, Recombinant TYK2 (Homo sapiens, UniProt P29597).
T4 construct: purchased Carna Biosciences
Kind of assay: JAK biochemical assay (LANCE Ultra TR-FRET), TYK2. The note with it: recombinant TYK2, TR-FRET; read-out: Biochemical Assay (μM) TYK2. In a few lines: as §1

T2 sequence (O60674 whole entry): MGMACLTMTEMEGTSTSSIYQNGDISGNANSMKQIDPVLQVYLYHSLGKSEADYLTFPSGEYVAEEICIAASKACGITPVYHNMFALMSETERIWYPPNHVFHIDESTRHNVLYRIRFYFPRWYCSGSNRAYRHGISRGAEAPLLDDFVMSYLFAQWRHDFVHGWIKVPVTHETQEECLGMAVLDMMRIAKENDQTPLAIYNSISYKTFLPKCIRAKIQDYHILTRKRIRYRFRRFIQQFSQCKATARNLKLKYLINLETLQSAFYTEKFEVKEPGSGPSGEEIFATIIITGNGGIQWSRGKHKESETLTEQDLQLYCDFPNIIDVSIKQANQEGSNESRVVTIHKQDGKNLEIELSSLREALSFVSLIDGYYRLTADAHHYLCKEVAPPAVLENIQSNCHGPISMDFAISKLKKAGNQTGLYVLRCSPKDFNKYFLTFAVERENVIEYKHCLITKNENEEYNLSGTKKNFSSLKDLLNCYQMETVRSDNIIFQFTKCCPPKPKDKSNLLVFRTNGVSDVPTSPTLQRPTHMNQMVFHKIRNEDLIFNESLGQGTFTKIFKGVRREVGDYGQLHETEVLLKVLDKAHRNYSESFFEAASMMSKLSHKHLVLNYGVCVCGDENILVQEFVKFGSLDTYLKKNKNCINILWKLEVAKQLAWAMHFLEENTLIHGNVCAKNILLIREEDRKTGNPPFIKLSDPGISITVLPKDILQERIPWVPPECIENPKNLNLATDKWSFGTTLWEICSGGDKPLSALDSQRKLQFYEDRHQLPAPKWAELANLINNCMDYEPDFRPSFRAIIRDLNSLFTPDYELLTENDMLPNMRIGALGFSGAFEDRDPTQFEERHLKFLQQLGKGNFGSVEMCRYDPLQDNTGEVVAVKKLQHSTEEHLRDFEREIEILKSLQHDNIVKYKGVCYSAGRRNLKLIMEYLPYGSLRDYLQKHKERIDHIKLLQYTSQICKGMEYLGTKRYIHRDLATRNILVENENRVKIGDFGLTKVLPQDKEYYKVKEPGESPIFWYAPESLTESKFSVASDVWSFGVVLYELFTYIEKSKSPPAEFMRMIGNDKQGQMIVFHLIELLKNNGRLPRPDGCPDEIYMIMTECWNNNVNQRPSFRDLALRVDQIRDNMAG
T1 sequence (P23458 whole entry): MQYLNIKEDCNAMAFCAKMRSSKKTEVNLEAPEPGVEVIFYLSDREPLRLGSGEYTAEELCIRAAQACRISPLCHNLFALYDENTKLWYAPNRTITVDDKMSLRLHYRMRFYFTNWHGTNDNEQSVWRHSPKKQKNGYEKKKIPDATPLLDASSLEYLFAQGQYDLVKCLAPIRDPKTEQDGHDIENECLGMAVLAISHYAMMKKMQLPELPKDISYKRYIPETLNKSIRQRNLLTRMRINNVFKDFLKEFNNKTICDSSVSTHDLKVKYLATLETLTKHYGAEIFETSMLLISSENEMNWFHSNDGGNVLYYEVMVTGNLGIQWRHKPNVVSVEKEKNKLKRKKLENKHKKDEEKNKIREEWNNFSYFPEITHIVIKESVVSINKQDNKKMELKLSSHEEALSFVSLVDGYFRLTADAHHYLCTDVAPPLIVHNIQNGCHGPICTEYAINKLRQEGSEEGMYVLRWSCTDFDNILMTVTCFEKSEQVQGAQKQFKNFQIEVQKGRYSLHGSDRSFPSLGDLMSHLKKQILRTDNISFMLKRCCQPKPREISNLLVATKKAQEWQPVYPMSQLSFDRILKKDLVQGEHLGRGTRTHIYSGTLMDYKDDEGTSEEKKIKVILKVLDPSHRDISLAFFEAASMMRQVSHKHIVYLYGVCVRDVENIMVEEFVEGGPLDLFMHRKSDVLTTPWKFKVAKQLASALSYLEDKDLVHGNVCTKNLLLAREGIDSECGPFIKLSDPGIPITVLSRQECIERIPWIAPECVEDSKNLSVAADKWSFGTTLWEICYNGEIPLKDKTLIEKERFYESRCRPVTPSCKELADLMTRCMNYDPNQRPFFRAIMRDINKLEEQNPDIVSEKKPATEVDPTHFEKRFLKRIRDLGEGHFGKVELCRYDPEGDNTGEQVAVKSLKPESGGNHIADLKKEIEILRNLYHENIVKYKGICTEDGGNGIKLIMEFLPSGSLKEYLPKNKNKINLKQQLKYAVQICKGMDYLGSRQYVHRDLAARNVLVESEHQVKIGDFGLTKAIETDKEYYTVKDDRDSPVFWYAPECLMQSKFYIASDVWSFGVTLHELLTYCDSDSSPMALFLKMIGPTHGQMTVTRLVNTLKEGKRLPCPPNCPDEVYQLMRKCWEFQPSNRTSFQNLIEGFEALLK
T4 sequence (P29597 whole entry): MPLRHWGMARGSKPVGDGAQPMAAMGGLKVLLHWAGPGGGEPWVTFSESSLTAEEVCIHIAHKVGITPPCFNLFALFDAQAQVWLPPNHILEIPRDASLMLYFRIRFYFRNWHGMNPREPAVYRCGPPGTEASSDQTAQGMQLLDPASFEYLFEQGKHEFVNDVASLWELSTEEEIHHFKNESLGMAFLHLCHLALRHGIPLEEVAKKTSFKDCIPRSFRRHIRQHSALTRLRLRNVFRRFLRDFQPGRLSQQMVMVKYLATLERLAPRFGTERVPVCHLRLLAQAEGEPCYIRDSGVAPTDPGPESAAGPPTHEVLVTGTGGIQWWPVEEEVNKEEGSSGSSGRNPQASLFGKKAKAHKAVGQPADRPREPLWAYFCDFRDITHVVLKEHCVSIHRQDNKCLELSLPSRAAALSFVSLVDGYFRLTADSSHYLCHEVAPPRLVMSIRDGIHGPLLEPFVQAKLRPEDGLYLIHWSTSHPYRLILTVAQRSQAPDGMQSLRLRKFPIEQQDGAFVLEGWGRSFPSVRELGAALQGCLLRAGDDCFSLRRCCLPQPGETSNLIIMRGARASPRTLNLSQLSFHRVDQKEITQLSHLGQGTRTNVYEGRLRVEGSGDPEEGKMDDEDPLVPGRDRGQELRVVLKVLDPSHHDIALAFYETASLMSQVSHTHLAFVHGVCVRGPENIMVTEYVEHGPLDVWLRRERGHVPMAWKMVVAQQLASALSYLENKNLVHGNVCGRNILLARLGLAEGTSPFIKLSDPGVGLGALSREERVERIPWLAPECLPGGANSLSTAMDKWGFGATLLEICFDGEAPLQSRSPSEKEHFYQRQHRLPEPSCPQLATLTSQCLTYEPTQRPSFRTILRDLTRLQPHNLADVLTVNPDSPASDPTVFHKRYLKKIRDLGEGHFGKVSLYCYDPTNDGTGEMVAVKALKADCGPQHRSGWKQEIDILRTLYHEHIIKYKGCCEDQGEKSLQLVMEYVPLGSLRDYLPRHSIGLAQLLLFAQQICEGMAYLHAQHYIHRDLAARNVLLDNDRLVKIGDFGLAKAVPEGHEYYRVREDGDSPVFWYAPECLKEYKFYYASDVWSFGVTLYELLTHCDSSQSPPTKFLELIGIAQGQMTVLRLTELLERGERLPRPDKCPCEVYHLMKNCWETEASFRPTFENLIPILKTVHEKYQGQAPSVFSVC

For `N#CCC(NC(=O)n1cc(-c2ccnc3[nH]c(=O)[nH]c23)cn1)C1CCOCC1` (stereo not shown) [Example 1062, N-(2-cyano-1-(tetrahydro-2H-pyran-4-yl)ethyl)-4-(2,3-dihydro-2-oxo-1H-imidazo[4,5-b]pyridin-7-yl)-1H-pyrazole-1-carboxamide], the IC50 on Recombinant JAK1, on Recombinant JAK2, on Recombinant JAK3 and on Recombinant TYK2 was < 0.5 µM each time.
Regarding `O=C(N1CCN(c2ccnc3[nH]c(=O)[nH]c23)CC1)N1CCS(=O)(=O)CC1` [Example 1018, 7-(4-(1,1-dioxidothiomorpholine-4-carbonyl)piperazin-1-yl)-1,3-dihydro-2H-imidazo[4,5-b]pyridin-2-one], the IC50 at Recombinant JAK1, on Recombinant JAK2, at Recombinant JAK3 and on Recombinant TYK2 was > 10 µM throughout.
In the case of `CS(=O)(=O)CCC(c1ccc(-n2cc(-c3ccnc4[nH]c(=O)[nH]c34)cn2)nc1)C(F)(F)F` (stereo not shown) [Example 1147, 7-(1-(5-(1,1,1-trifluoro-4-(methylsulfonyl)butan-2-yl)pyridin-2-yl)-1H-pyrazol-4-yl)-1H-imidazo[4,5-b]pyridin-2(3H)-one], the IC50 on Recombinant JAK1 was > 0.5 µM; at Recombinant JAK2, > 1 µM; at Recombinant JAK3, > 1 µM; at Recombinant TYK2, > 1 µM.
Take `O=C(NCC1CCCC1)n1cc(-c2ccnc3[nH]c(=O)[nH]c23)cn1` [Example 1034, N-(cyclopentylmethyl)-4-(2,3-dihydro-2-oxo-1H-imidazo[4,5-b]pyridin-7-yl)-1H-pyrazole-1-carboxamide]: the IC50 at Recombinant JAK1 was > 1 µM; on Recombinant JAK2, > 1 µM; on Recombinant JAK3 it was > 10 µM; on Recombinant TYK2 it was > 10 µM.
As for `O=C(NCC(F)(F)F)c1ccc(-c2ccnc3[nH]c(=O)[nH]c23)cc1` [Example 1001, N-(2,2,2-trifluoroethyl)-4-(2,3-dihydro-2-oxo-1H-imidazo[4,5-b]pyridin-7-yl)benzamide], the IC50 at Recombinant JAK1, at Recombinant JAK2, on Recombinant JAK3 and on Recombinant TYK2 was > 10 µM throughout.
As for `OC(c1ccc(-n2cc(-c3ccnc4[nH]cnc34)cn2)nc1)C1CC1` (stereo not shown) [Example 1159, (6-(4-(3H-imidazo[4,5-b]pyridin-7-yl)-1H-pyrazol-1-yl)pyridin-3-yl)(cyclopropyl)methanol], the IC50 is < 0.1 µM at Recombinant JAK1, > 0.1 µM on Recombinant JAK2, < 0.1 µM on Recombinant JAK3 and > 1 µM at Recombinant TYK2.
For `CC(C)(CO)C(c1ccc(-n2cc(-c3ccnc4[nH]cnc34)cn2)nc1)C(F)(F)F` (stereo not shown) [Example 1196, 3-(6-(4-(3H-imidazo[4,5-b]pyridin-7-yl)-1H-pyrazol-1-yl)pyridin-3-yl)-4,4,4-trifluoro-2,2-dimethylbutan-1-ol], the IC50 is > 0.1 µM at Recombinant JAK1, > 0.5 µM at Recombinant JAK2, > 0.1 µM at Recombinant JAK3 and > 1 µM on Recombinant TYK2.
In the case of `CC(=O)N1CCC(c2nc3c(-c4cnn(C(=O)NCC(F)(F)F)c4)ccnc3[nH]2)CC1` [Example 1098, 4-(2-(1-acetylpiperidin-4-yl)-3H-imidazo[4,5-b]pyridin-7-yl)-N-(2,2,2-trifluoroethyl)-1H-pyrazole-1-carboxamide], the IC50 is > 1 µM at Recombinant JAK1, > 1 µM at Recombinant JAK2, > 1 µM on Recombinant JAK3 and > 10 µM at Recombinant TYK2.
With `O=C(NCC(F)(F)F)n1cc(-c2cccc3[nH]c(=O)[nH]c23)cn1` [Example 1036, N-(2,2,2-trifluoroethyl)-4-(2,3-dihydro-2-oxo-1H-benzo[d]imidazol-4-yl)-1H-pyrazole-1-carboxamide], the IC50 at Recombinant JAK1, at Recombinant JAK2, at Recombinant JAK3 and at Recombinant TYK2 was > 10 µM each time.
In the case of `O=C1Cc2c(-c3cnn(C(=O)NCC(F)(F)F)c3)ccnc2N1` [Example 1045, N-(2,2,2-trifluoroethyl)-4-(2,3-dihydro-2-oxo-1H-pyrrolo[2,3-b]pyridin-4-yl)-1H-pyrazole-1-carboxamide], the IC50 on Recombinant JAK1, on Recombinant JAK2, at Recombinant JAK3 and at Recombinant TYK2 was > 1 µM throughout.
Regarding `CC(C)OC(c1ccc(-n2cc(-c3ccnc4[nH]cnc34)cn2)nc1)C(F)(F)F` (stereo not shown) [Example 1124, 7-(1-(5-(2,2,2-trifluoro-1-isopropoxyethyl)pyridin-2-yl)-1H-pyrazol-4-yl)-3H-imidazo[4,5-b]pyridine], the IC50 at Recombinant JAK1 is > 1 µM; on Recombinant JAK2 it was > 1 µM; at Recombinant JAK3, > 0.5 µM; on Recombinant TYK2, > 1 µM.
Turning to `Cn1c(=O)[nH]c2nccc(-c3cnn(C(=O)NCC(F)(F)F)c3)c21` [Example 1029, N-(2,2,2-trifluoroethyl)-4-(2,3-dihydro-1-methyl-2-oxo-1H-imidazo[4,5-b]pyridin-7-yl)-1H-pyrazole-1-carboxamide], the IC50 on Recombinant JAK1, at Recombinant JAK2, at Recombinant JAK3 and at Recombinant TYK2 was > 10 µM throughout.
`N#CC1CN(Cc2ccc(-n3cc(-c4ccnc5[nH]cnc45)cn3)nc2)C1` [Example 1087, 1-((6-(4-(3H-imidazo[4,5-b]pyridin-7-yl)-1H-pyrazol-1-yl)pyridin-3-yl)methyl)azetidine-3-carbonitrile]: the IC50 on Recombinant JAK1 was > 0.5 µM; at Recombinant JAK2, > 1 µM; on Recombinant JAK3, > 1 µM; at Recombinant TYK2, > 10 µM.
As for `N#CCc1ccc(-n2cc(-c3ccnc4[nH]cnc34)cn2)cc1F` [Example 1104, 2-(4-(4-(3H-imidazo[4,5-b]pyridin-7-yl)-1H-pyrazol-1-yl)-2-fluorophenyl)acetonitrile], the IC50 on Recombinant JAK1 is > 1 µM; on Recombinant JAK2 it was < 0.5 µM; at Recombinant JAK3, < 0.5 µM; at Recombinant TYK2, > 1 µM.
`CC(C)N(CCC(c1ccc(-n2cc(-c3ccnc4[nH]cnc34)cn2)nc1)C(F)(F)F)C(C)C` (stereo not shown) [Example 1211, 3-(6-(4-(3H-imidazo[4,5-b]pyridin-7-yl)-1H-pyrazol-1-yl)pyridin-3-yl)-4,4,4-trifluoro-N,N-diisopropylbutan-1-amine]: the IC50 at Recombinant JAK1 is < 0.1 µM; on Recombinant JAK2, > 0.1 µM; on Recombinant JAK3, > 0.1 µM; at Recombinant TYK2, > 1 µM.
Consider `N#CC(c1ccc(-n2cc(-c3ccnc4[nH]cnc34)cn2)nc1)C1CC1` (stereo not shown) [Example 1110, 2-(6-(4-(3H-imidazo[4,5-b]pyridin-7-yl)-1H-pyrazol-1-yl)pyridin-3-yl)-2-cyclopropylacetonitrile], for which the IC50 at Recombinant JAK1 is > 0.1 µM; on Recombinant JAK2, > 0.5 µM; on Recombinant JAK3, > 0.1 µM; at Recombinant TYK2, > 1 µM.
In the case of `N#CCC(NC(=O)n1cc(-c2ccnc3[nH]cnc23)cn1)C1CCOCC1` (stereo not shown) [Example 1065, N-(2-cyano-1-(tetrahydro-2H-pyran-4-yl)ethyl)-4-(3H-imidazo[4,5-b]pyridin-7-yl)-1H-pyrazole-1-carboxamide], the IC50 at Recombinant JAK1 is > 0.5 µM; on Recombinant JAK2 it was < 0.5 µM; at Recombinant JAK3 it was > 0.5 µM; on Recombinant TYK2, > 0.5 µM.
On to `COc1cc(-c2nc3c(-c4cnn(C5COCCC5C#N)c4)ccnc3[nH]2)ccc1Cl` (stereo not shown) [Example 1097, 3-(4-(2-(4-chloro-3-methoxyphenyl)-3H-imidazo[4,5-b]pyridin-7-yl)-1H-pyrazol-1-yl)-tetrahydro-2H-pyran-4-carbonitrile], for which the IC50 on Recombinant JAK1 is > 10 µM; on Recombinant JAK2, > 0.5 µM; on Recombinant JAK3, > 10 µM; at Recombinant TYK2, > 1 µM.
For the compound `O=C(CCC(F)(F)F)n1cc(-c2ccnc3[nH]c(=O)[nH]c23)cn1` [Example 1031, 7-(1-(4,4,4-trifluorobutanoyl)-1H-pyrazol-4-yl)-1H-imidazo[4,5-b]pyridin-2(3H)-one], the IC50 at Recombinant JAK1, at Recombinant JAK2, at Recombinant JAK3 and at Recombinant TYK2 was > 1 µM in each case.

These data come from patent US12516056B2, “Compounds for inhibition of janus kinase 1” (MANKIND PHARMA LTD., priority 2019, dated 2026).
